Assays:
MCF-7 cells = experiment: Breast Cancer Cell Viability Assays (MCF-7, CellTiter-Glo); format: cell-based; settings: 5 days' compound exposure; for IC50: Homo sapiens, MCF7, 120 h
Experimental: MCF-7 cells were adjusted to a concentration of 20,000 cells per mL in RPMI containing 10% FBS and 20 mM HEPES. 16 microliters of the cell suspension (320 cells) was added to each well of a 384 well plate, and the cells were incubated overnight to allow the cells to adhere. The following day an eleven point, serial semilog dilution of each compound was added to the cells in 16 μL at a final concentration ranging from 0.3-0.000003 μM. After 5 days' compound exposure, 16 μL of CellTiter-GLo (Promega, Madison Wis.) was added to the cells, and the relative luminescence units (RLUs) of each well were determined. CellTiter-Glo added to 32 μL of medium without cells was used to obtain a background value. The Percent viability of each sample was determined as follows: (RLU sample−RLU background/RLU untreated cells−RLU background)×100=% viability. […]

ER-α in MCF-7 cells = target: T1, ER-α in MCF-7 cells (Homo sapiens, UniProt P03372); experiment: Breast Cancer Cell ER-α In Cell Western Assay (SP1); format: cell-based; settings: 4 or 24 hr post compound addition; for Emax: MCF7, SP1 antibody, read-out: ER-α In Cell Western Assay (SP1) Max Response; for DC50: SP1 antibody, read-out: ER-α In Cell Western Assay (SP1) IC50
T1 construct: endogenous in cells; host or cells: MCF-7
T1 sequence (P03372 1-595): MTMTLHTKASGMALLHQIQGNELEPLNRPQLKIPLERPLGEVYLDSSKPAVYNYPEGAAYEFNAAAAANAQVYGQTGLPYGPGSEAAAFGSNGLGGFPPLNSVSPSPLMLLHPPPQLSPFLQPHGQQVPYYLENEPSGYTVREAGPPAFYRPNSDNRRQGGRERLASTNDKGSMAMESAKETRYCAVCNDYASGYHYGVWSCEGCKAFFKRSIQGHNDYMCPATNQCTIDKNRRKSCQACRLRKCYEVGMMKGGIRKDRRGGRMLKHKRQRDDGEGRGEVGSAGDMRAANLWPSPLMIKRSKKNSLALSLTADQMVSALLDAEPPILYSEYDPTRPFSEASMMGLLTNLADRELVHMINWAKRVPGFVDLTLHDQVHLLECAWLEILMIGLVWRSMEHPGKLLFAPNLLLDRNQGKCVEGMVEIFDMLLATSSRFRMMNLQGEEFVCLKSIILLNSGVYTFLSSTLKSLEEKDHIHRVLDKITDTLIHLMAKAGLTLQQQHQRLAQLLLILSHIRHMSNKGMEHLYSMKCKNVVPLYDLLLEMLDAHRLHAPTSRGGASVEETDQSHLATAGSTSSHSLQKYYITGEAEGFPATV
Experimental: MCF-7 cells were adjusted to a concentration of 200,000 cells per mL in RPMI containing 10% charcoal-stripped FBS and 20 mM HEPES. 16 microliters of the cell suspension (3200 cells) was added to each well of a poly-D-lysine 384 well plate, and the cells were incubated overnight to allow the cells to adhere. The following day an eleven point, serial semilog dilution of each compound was added to the cells in 16 μL at a final concentration ranging from 0.3-0.000003 μM. At 4 or 24 hr post compound addition, the cells were fixed (10% formalin in PBS) for 20 minutes. Cells were permeablized in PBS 0.1% Triton and blocked with LICOR blocking buffer (50 μl/well, 90′). The wells were then incubated overnight at 4° C. with SP1 rabbit monoclonal Ab (Thermo Scientific) diluted 1:1000 in LICOR blocking buffer/0.1% Tween-20. Wells which were treated with blocking buffer with Tween but no antibody were used as a background control. Wells were washed with 0.1% Tween-20/PBS and then incubated in goat anti-rabbit IRDye™ 800CW (LICOR Inc.; 1:10000) and DRAQ5 DNA dye (1:2000 for 2 mM stock) diluted in LICOR blocking buffer containing 0.1% Tween-20 and 0.01% SDS for 60 minutes. Cells were washed (50 μl/well, 5′ each) in 0.1% Tween-20/PBS. Plates were scanned on a LICOR Odyssey infrared imaging system. Integrated intensities in the 800 nm channel and 700 nm channel were measured to determine levels of ER and DNA respectively. Percent ER levels were determined as follows: (Integrated intensity 800 nm sample/integrated intensity 700 nm sample)/(Integrated intensity 800 nm untreated cells/integrated intensity 700 nm untreated cells)×100=% ER levels. […]

Row | IC50 (MCF-7 cells) | Emax (ER-α in MCF-7 cells) | DC50 (ER-α in MCF-7 cells) | Structure (SMILES) | MCF7 Viability Assay Max Response (MCF-7 cells)
1 | ≤ 100 nM | ≥ 40% | ≤ 100 nM | N#Cc1c(/C(=C(/c2ccccc2)C2CCC2)c2ccc(/C=C/C(=O)O)cc2)ccc2[nH]nc(F)c12 [Example 12, (E)-3-(4-((E)-1-(4-Cyano-3-fluoro-1H-indazol-5-yl)-2-cyclobutyl-2-phenylvinyl)phenyl)acrylic acid] | ++ (++ = a single % value ≧ 40%)
2 | ≤ 100 nM | ≥ 40% | ≤ 100 nM | N#Cc1c(/C(=C(/c2ccccc2)C2CC2)c2ccc(/C=C/C(=O)O)cc2)ccc2[nH]nc(F)c12 [Example 14, (E)-3-(4-((E)-1-(4-Cyano-3-fluoro-1H-indazol-5-yl)-2-cyclopropyl-2-phenylvinyl)phenyl)acrylic acid] | ++ (++ = a single % value ≧ 40%)
3 | ≤ 100 nM | ≥ 40% | ≤ 100 nM | CC(C)/C(=C(/c1ccc(/C=C/C(=O)O)cc1)c1ccc2[nH]nc(F)c2c1)c1ccccc1 [Example 15, (E)-3-(4-((E)-1-(3-Fluoro-1H-indazol-5-yl)-3-methyl-2-phenylbut-1-en-1-yl)phenyl)acrylic acid] | ++ (++ = a single % value ≧ 40%)
4 | ≤ 100 nM | ≥ 40% | ≤ 100 nM | O=C(O)/C=C/c1ccc(/C(=C(\c2ccccc2)C2CCC2)c2ccc3[nH]nnc3c2)cc1 [Example 17, (E)-3-(4-((E)-1-(1H-Benzo[d][1,2,3]triazol-5-yl)-2-cyclobutyl-2-phenylvinyl)phenyl)acrylic acid] | ++ (++ = a single % value ≧ 40%)
5 | ≤ 100 nM | ≥ 40% | ≤ 100 nM | COc1ccc(/C(=C(\c2ccc(/C=C/C(=O)O)cc2)c2ccc3[nH]nc(F)c3c2)C2CCC2)cc1 [Example 23, (E)-3-(4-((E)-2-Cyclobutyl-1-(3-fluoro-1H-indazol-5-yl)-2-(4-methoxyphenyl)vinyl)phenyl)acrylic acid] | ++ (++ = a single % value ≧ 40%)
6 | ≤ 100 nM | ≥ 40% | ≤ 100 nM | COc1cccc(/C(=C(\c2ccc(/C=C/C(=O)O)cc2)c2ccc3[nH]nc(F)c3c2)C2CCC2)c1 [Example 24, (E)-3-(4-((E)-2-Cyclobutyl-1-(3-fluoro-1H-indazol-5-yl)-2-(3-methoxyphenyl)vinyl)phenyl)acrylic acid] | ++ (++ = a single % value ≧ 40%)
7 | ≤ 100 nM | ≥ 40% | ≤ 100 nM | O=C(O)/C=C/c1ccc(/C(=C(\c2ccccc2)C2CCC2)c2ccc3[nH]ncc3c2F)cc1 [Example 25, (E)-3-(4-((E)-2-Cyclobutyl-1-(4-fluoro-1H-indazol-5-yl)-2-phenylvinyl)phenyl)acrylic acid] | ++ (++ = a single % value ≧ 40%)
8 | ≤ 100 nM | ≥ 40% | ≤ 100 nM | O=C(O)/C=C/c1ccc(/C(=C(\c2ccccc2)C2CC2)c2ccc3[nH]nc(F)c3c2)cc1 [Example 26, (E)-3-(4-((E)-2-Cyclopropyl-1-(3-fluoro-1H-indazol-5-yl)-2-phenylvinyl)phenyl)acrylic acid] | ++ (++ = a single % value ≧ 40%)
9 | ≤ 100 nM | ≥ 40% | ≤ 100 nM | O=C(O)/C=C/c1ccc(/C(=C(\c2ccccc2)C2CCC2)c2ccc3[nH]c(=O)oc3c2)cc1 [Example 27, (E)-3-(4-((E)-2-Cyclobutyl-1-(2-oxo-2,3-dihydrobenzo[d]oxazol-6-yl)-2-phenylvinyl)phenyl)acrylic acid] | ++ (++ = a single % value ≧ 40%)
10 | ≤ 100 nM | ≥ 40% | ≤ 100 nM | Cc1ccccc1/C(=C(\c1ccc(/C=C/C(=O)O)cc1)c1ccc2[nH]nc(F)c2c1)C1CC1 [Example 29, (E)-3-(4-((E)-2-Cyclopropyl-1-(3-fluoro-1H-indazol-5-yl)-2-(o-tolyl)vinyl)phenyl)acrylic acid] | ++ (++ = a single % value ≧ 40%)

Second part, the compound before the results:

Row | Structure (SMILES) | IC50 (MCF-7 cells) | Emax (ER-α in MCF-7 cells) | DC50 (ER-α in MCF-7 cells) | MCF7 Viability Assay Max Response (MCF-7 cells)
11 | Cc1ccccc1/C(=C(\c1ccc(/C=C/C(=O)O)cc1)c1ccc2[nH]ncc2c1C#N)C1CCC1 [Example 11, (E)-3-(4-((E)-1-(4-Cyano-1H-indazol-5-yl)-2-cyclobutyl-2-(o-tolyl)vinyl)phenyl)acrylic acid] | ≤ 100 nM | ≥ 40% | ≤ 100 nM | ++ (++ = a single % value ≧ 40%)
12 | N#Cc1c(/C(=C(/c2ccccc2)C2CC2)c2ccc(/C=C/C(=O)O)cc2)ccc2[nH]ncc12 [Example 13, (E)-3-(4-((E)-1-(4-Cyano-1H-indazol-5-yl)-2-cyclopropyl-2-phenylvinyl)phenyl)acrylic acid] | ≤ 100 nM | ≥ 40% | ≤ 100 nM | ++ (++ = a single % value ≧ 40%)
13 | O=C(O)/C=C/c1ccc(/C(=C(\c2ccccc2)C2CCC2)c2cccc3[nH]ncc23)cc1 [Example 18, (E)-3-(4-((E)-2-Cyclobutyl-1-(1H-indazol-4-yl)-2-phenylvinyl)phenyl)acrylic acid] | ≤ 100 nM | ≥ 40% | ≤ 100 nM | ++ (++ = a single % value ≧ 40%)
14 | CC/C(=C(/c1ccc(/C=C/C(=O)O)cc1)c1ccc2scnc2c1C#N)c1ccccc1 [Example 19, (E)-3-(4-((E)-1-(4-Cyanobenzo[d]thiazol-5-yl)-2-phenylbut-1-en-1-yl)phenyl)acrylic acid] | ≤ 100 nM | ≥ 40% | ≤ 100 nM | ++ (++ = a single % value ≧ 40%)
15 | Cc1cscc1/C(=C(\c1ccc(/C=C/C(=O)O)cc1)c1ccc2scnc2c1)C(C)C [Example 20, (E)-3-(4-((E)-1-(Benzo[d]thiazol-5-yl)-3-methyl-2-(4-methylthiophen-3-yl)but-1-en-1-yl)phenyl)acrylic acid] | ≤ 100 nM | ≥ 40% | ≤ 100 nM | ++ (++ = a single % value ≧ 40%)
16 | N#Cc1c(/C(=C(/c2ccccc2)C2CCC2)c2ccc(/C=C/C(=O)O)cc2)ccc2scnc12 [Example 21, (E)-3-(4-((E)-1-(4-Cyanobenzo[d]thiazol-5-yl)-2-cyclobutyl-2-phenylvinyl)phenyl)acrylic acid] | ≤ 100 nM | ≥ 40% | ≤ 100 nM | ++ (++ = a single % value ≧ 40%)
17 | O=C(O)/C=C/c1ccc(/C(=C(\c2ccccc2)C2CCC2)c2cc(F)c3[nH]ncc3c2F)cc1 [Example 22, (E)-3-(4-((E)-2-Cyclobutyl-1-(4,7-difluoro-1H-indazol-5-yl)-2-phenylvinyl)phenyl)acrylic acid] | > 100 nM | ≥ 40% | > 100 nM | ++ (++ = a single % value ≧ 40%)
18 | O=C(O)/C=C/c1ccc(/C(=C(\c2ccc(F)cc2Cl)C2CCC2)c2ccc3[nH]c(=O)oc3c2)cc1 [Example 28, (E)-3-(4-((E)-2-(2-Chloro-4-fluorophenyl)-2-cyclobutyl-1-(2-oxo-2,3-dihydrobenzo[d]oxazol-6-yl)vinyl)phenyl)acrylic acid] | ≤ 100 nM | ≥ 40% | ≤ 100 nM | ++ (++ = a single % value ≧ 40%)

From patent publication US9499538B2, “Estrogen receptor modulators and uses thereof” (Seragon Pharmaceuticals, Inc., priority 2012, dated 2016)
